Source: patent US20250354188A1, “METHOD FOR SYNTHESIZING CELOSIANIN II, METHOD FOR SYNTHESIZING BETAXANTHIN, AMYLOID-ß POLYMERIZATION INHIBITOR OR THERAPEUTIC OR PROPHYLACTIC AGENT FOR ALZHEIMER'S DISEASE, AMYLOID PEPTIDE AGGREGATION INHIBITOR, AND HIV-1 PROTEASE ACTIVITY INHIBITOR” (priority 2019, published 2025)

Tests used:
[1] = target: T1, human amyloid-β 1-40, Aβ40 (Homo sapiens, UniProt P05067); assay: Observation of amyloid peptide aggregation using transmission electron microscope; format: biochemical; settings: 25 μM Aβ40 + 50 μM sample, 5 days; for effect on polymerization and amorphous aggregation of amyloid fibrils (conclusion from TEM): 37° C.; for aggregation of the amyloid peptide observed by TEM: PBS pH 7.4, 37° C., dark
T1 construct: A lyophilized amyloid peptide (human amyloid-β 1-40, Aβ40) was purchased from Peptide Institute, Inc; purchased Peptide Institute, Inc
T1 sequence (P05067 672-711 limits assumed): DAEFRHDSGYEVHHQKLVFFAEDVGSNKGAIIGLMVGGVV
Protocol: A lyophilized amyloid peptide (human amyloid-β 1-40, Aβ40) was purchased from Peptide Institute, Inc., dissolved as a stock solution at a concentration of 1 mM using dimethyl sulfoxide, and stored at-20° C. until use.
As a betaxanthin, the betaxanthin extracted from the betaxanthin-producing BY2 cells (FIG. 10) was used.
With regard to reaction conditions, Aβ40 and a sample (betanin, amaranthin, celosianin II, ferulic acid, or the betaxanthin) were prepared with PBS (pH 7.4) so as to have a final concentration of 25 μM and a final concentration of 50 μM, respectively. As a control, distilled water was used in place of the sample. The prepared sample was left to stand still in a dark place at 37° C. for 5 days.
The sample after the reaction was stained on a grid mesh for a transmission electron microscope by adding about 2 μL of a 2% uranyl acetate solution thereto. After the solution had dried, the aggregation of the amyloid peptide was observed using a transmission electron microscope (Hitachi 7650 TEM).

[2] = tested on: Transgenic nematodes (CL2006) expressing human amyloid-β 1-42, Aβ42; assay: Paralysis test using transgenic nematodes expressing amyloid peptide; format: in vivo, Caenorhabditis elegans; settings: fed with 50 μM betanin, compared to group fed with dextrin (control)
Protocol: In a transgenic nematode expressing an amyloid peptide, aggregates of the amyloid peptide are formed in the body along with its growth period, and the nematode is paralyzed. In view of this, whether feeding with betanin changed a paralysis ratio was evaluated.
Nematodes were grown using NGM plates (nematode growth medium), and grown using Escherichia coli (OP50 strain) as food under the condition of 15° C. unless otherwise indicated.
Transgenic nematodes (CL2006) expressing an amyloid peptide (human amyloid-β 1-42, Aβ42) were obtained from the Caenorhabditis Genetics Center (CGC), USA. The CL2006 expresses Aβ42 in the cells of the body wall muscle of the nematode, and then aggregation of the amyloid peptide occurs in the muscle. […]
The individuals grown to adults through the synchronized growth were transferred to NGM plates containing various concentrations (2 μM, 10 μM, and 50 μM) of food having mixed therein dextrin or betanin, and were grown. After the nematodes had been transferred, the nematodes were each evaluated for paralysis at constant intervals. […]
Paralysis was evaluated on the basis of the behavior of the nematode after the nose of the nematode had been lightly tapped with a platinum wire.

[3] = Stability of betalain pigment aqueous solutions at 37° C.; format: physicochemical; settings: for red color after treatment: 4 days at 37° C.
Protocol: An aqueous solution of each of celosianin II, amaranthin, and betanin was evaluated for its stability at 37° C.
For each of betanin, amaranthin, and celosianin II, a 1 mM aqueous solution was prepared, and left to stand still in an incubator at 37° C. Absorbances at 536 nm on days 0, 1, 2, 3, and 4 were measured, and for the resultant values, relative amounts with respect to the absorbance on day 0 were calculated.

β-Amyloid (1-40) = target: T2, β-Amyloid (1-40) (Homo sapiens, UniProt P05067); assay: Amyloid-β polymerization inhibitory activity in Thioflavin T (ThT) assay; format: biochemical; settings: sample 50 μM final; ThT fluorescence for 4 hours
T2 construct: SensoLyte Thioflavin T β-Amyloid (1-40) Aggregation Kit (ANASPEC); purchased ANASPEC
T2 sequence (P05067 672-711 limits assumed): as above
Protocol: ThT assay involved evaluating polymerization using SensoLyte Thioflavin T β-Amyloid (1-40) Aggregation Kit (ANASPEC) in accordance with an accompanying protocol.
As an apparatus used for measurement, Varioskan LUX (Thermo Fisher Scientific) was used, and fluorescence derived from the polymerization of amyloid-β was measured for 4 hours at intervals of 5 minutes. A sample was stirred for 15 seconds before each measurement and subjected to the measurement. An excitation wavelength of 440 nm and a detection wavelength of 484 nm were used.
The sample used for the ThT assay was prepared to have a final concentration of 50 μM before being used for the experiment. Tannic acid (Ono, K., Hasegawa, K., Naiki, H. & Yamada, M. (2004) Anti-amyloidogenic activity of tannic acid and its activity to destabilize Alzheimer's beta-amyloid fibrils in vitro. Biochim Biophys Acta 1690, 193-202.) was used as a control of an inhibitor.
The sample used for the ThT assay was prepared to have a final concentration of 50 μM before being used for the experiment. An extracted sample from the BY-2 cells having an empty vector introduced therein (VC) and water (PC) in place of a sample were used as controls. In addition, betanin and curcumin were used as positive controls. Curcumin is a plant-derived substance reported to have amyloid-β polymerization inhibitory activity (Yang F, Lim GP, Begum AN, et al. Curcumin inhibits formation of amyloid betaoligomers and fibrils, binds plaques, and reduces amyloid in vivo. J BiolChem. 2005; 280(7): 5892-5901. doi:10.1074/jbc.M404751200).

[4] = target: T3, recombinant HIV-1 protease (Human immunodeficiency virus type 1 group M subtype B, UniProt P04585); assay: HIV-1 protease inhibitory activity (residual substrate peptide by HPLC); format: biochemical
T3 construct: A recombinant HIV-1 protease (ab84117) from Abcam was used as an HIV-1 protease; purchased Abcam ab84117
Protocol: A recombinant HIV-1 protease (ab84117) from Abcam was used as an HIV-1 protease, and an HIV-1 protease substrate (Lys-Ala-Arg-Val-Nle-p-nitro-Phe-Glu-Ala-Nle amide) from Sigma-Aldrich was used as a substrate peptide for the HIV-1 protease. HIV-1 protease activity evaluation was performed with reference to a previously reported method (Boso, G., Orvell, C. and Somia, N.V. (2015) The nature of the N-terminal amino acid residue of HIV-1 RNase H is critical for the stability of reverse transcriptase in viral particles. J. Virol. 89, 1286-1297.). Amaranthin, betanin, or celosianin II was added to 16 pmol of the HIV-1 protease and 4 nmol of the HIV-1 protease substrate, a buffer (25 mM NaCl, 25 mM Na2HPO4, 1 mM dithiothreitol, pH 4.7) was added so that the amount of a reaction liquid was 30 μl, and a reaction was performed at 25° C. for 2 hours. With regard to the addition amount of amaranthin, betanin, or celosianin II, amaranthin, betanin, and celosianin II were each added at the ratio of a 100-fold amount with respect to the amount of the HIV-1 protease. For celosianin II, the ratios of 25-and 50-fold amounts were further evaluated. An HIV-1 inhibitor saquinavir was used as a positive control.
After the reaction, the reaction liquid was measured for the amount of the residual substrate peptide through use of HPLC, and a residual ratio with respect to the substrate before the reaction was calculated. For the HPLC, LC-20AD from Shimadzu was utilized, and a Shim-pack GWS C18 column (5 μm; 200 mm×4.6 mm i.d.; Shimadzu GLC) was used as an analytical column. For an analytical solvent system, 0.05% TFA in water was used as solvent A and 0.05% TFA in acetonitrile was used as solvent B. An HPLC program was set to a linear gradient from 0% of solvent B at 0 minutes to 50% of solvent B at 50 minutes, and the HPLC was performed at a flow rate of 0.5 mL/min and 25° C. Analysis was performed with an analytical wavelength being set to 260 nm allowing the HIV-1 protease substrate peptide to be detected.

With `O=C(O)C1=C/C(=C/C=[N+]2/c3cc(O)c(OC4OC(CO)[C@@H](O)C(O)C4O)cc3CC2C(=O)[O-])CC(C(=O)O)N1` (stereo in doubt) [betanin] the “effect on polymerization and amorphous aggregation of amyloid fibrils (conclusion from TEM)” value (“effect … (conclusion from TEM)” below) [1] was “inhibiting both of the polymerization and amorphous aggregation of amyloid fibrils”, the “aggregation of the amyloid peptide observed by TEM” value (from here on “aggregation … by TEM”) [1] was “only short amyloid fibrils were observed” and the paralysis ratio [2] was “significant amelioration (reduction) in paralysis ratio”. For the same compound, the “red color after treatment” value ([3]; 1 mM aqueous solution) was “disappeared” and the “amyloid-β polymerization inhibitory activity” value (β-Amyloid (1-40)) was “comparable to or higher than that of the existing inhibitor (tannic acid)”.
With `O=C(O)C1=C/C(=C/C=[N+]2c3cc(O)c(O[C@@H]4O[C@H](CO)[C@@H](O)[C@H](O)[C@H]4O[C@@H]4O[C@H](C(=O)O)[C@@H](O)[C@H](O)[C@H]4O)cc3C[C@H]2C(=O)[O-])C[C@@H](C(=O)O)N1` [amaranthin] the “effect … (conclusion from TEM)” value [1] was “inhibiting both of the polymerization and amorphous aggregation of amyloid fibrils”, the “aggregation … by TEM” value [1] was “only short amyloid fibrils were observed” and the “red color after treatment” value ([3]; 1 mM aqueous solution) was “disappeared”. The “amyloid-β polymerization inhibitory activity” value (β-Amyloid (1-40)) was “possessed inhibitory activity, though its effect was low as compared to celosianin II and betanin”.
For `COc1cc(/C=C/C(=O)O[C@H]2[C@H](O[C@H]3[C@H](Oc4cc5c(cc4O)[N+](=C/C=C4/C=C(C(=O)O)N[C@H](C(=O)O)C4)[C@H](C(=O)[O-])C5)O[C@H](CO)[C@@H](O)[C@@H]3O)O[C@H](C(=O)O)[C@@H](O)[C@@H]2O)ccc1O` [celosianin II], the “effect … (conclusion from TEM)” value [1] was “inhibiting both of the polymerization and amorphous aggregation of amyloid fibrils”, the “aggregation … by TEM” value [1] was “only short amyloid fibrils were observed” and the “residual amounts of the betalain pigments (absorbance at 536 nm relative to day 0)” value ([3]; 1 mM aqueous solution, 37° C., days 0 to 4) was “more abundant than amaranthin and betanin”. For the same compound, the “red color after treatment” value ([3]; 1 mM aqueous solution) was “still exhibited a red color”, the “stability of aqueous solution” value ([3]; 37° C., compared to amaranthin and betanin) was “stable” and the “amyloid-β polymerization inhibitory activity” value (β-Amyloid (1-40)) was “comparable to or higher than that of the existing inhibitor (tannic acid)”. The “dependence of HIV-1 protease inhibitory activity on amount” value ([4]; 25-, 50- and 100-fold amounts with respect to HIV-1 protease) was “amount-dependent”, the “HIV-1 protease activity inhibitory effect relative to amaranthin” value ([4]; 25-fold celosianin II vs 100-fold amaranthin) was 4 times and the “HIV-1 protease inhibitory activity” value ([4]; celosianin II added in 25-fold amount with respect to HIV-1 protease, 25° C., 2 hours, pH 4.7) was “comparable to that in the case where a 100-fold amount of amaranthin was added”.
In the case of `COc1cc(/C=C/C(=O)O)ccc1O` [ferulic acid], the “effect … (conclusion from TEM)” value [1] is reported as “inhibiting both of the polymerization and amorphous aggregation of amyloid fibrils”, the “aggregation … by TEM” value [1] is reported as “only short amyloid fibrils were observed” and the “amyloid-β polymerization inhibitory activity” value (β-Amyloid (1-40)) is reported as “weaker than those of celosianin II, the betanin pigment, and amaranthin”.
